{"source": "ChEMBL document CHEMBL1122712", "about": "“[(E)-1-[123I]Iodo-1-penten-5-yl]triphenylphosphonium iodide: convenient preparation of a potentially useful myocardial perfusion agent” (J Med Chem, 1984)", "format_in_all_cases": "ADME, organism-based", "key": {"Rattus norvegicus [1]": {"system": "Rattus norvegicus", "assay": "Distribution of radioactivity in the female heart rat tissues after intravenous administration after 3 days was determined", "conditions": "in vivo, 72 h"}, "Rattus norvegicus [2]": {"system": "Rattus norvegicus", "assay": "Distribution of radioactivity in the female liver rat tissues after intravenous administration after 30 min was determined", "conditions": "in vivo, 0.5 h"}, "Rattus norvegicus [3]": {"system": "Rattus norvegicus", "assay": "Distribution of radioactivity in the female rat blood tissues after intravenous administration after 1 day was determined", "conditions": "in vivo, 24 h"}, "Rattus norvegicus [4]": {"system": "Rattus norvegicus", "assay": "Distribution of radioactivity in the female rat blood tissues after intravenous administration after 30 min was determined", "conditions": "in vivo, 0.5 h"}, "Rattus norvegicus [5]": {"system": "Rattus norvegicus", "assay": "Distribution of radioactivity in the female rat blood tissues after intravenous administration after 3 days was determined", "conditions": "in vivo, 72 h"}, "Rattus norvegicus [6]": {"system": "Rattus norvegicus", "assay": "Distribution of radioactivity in the female rat blood tissues after intravenous administration after 3h was determined", "conditions": "in vivo"}, "Rattus norvegicus [7]": {"system": "Rattus norvegicus", "assay": "Distribution of radioactivity in the female rat blood tissues after intravenous administration after 5 min was determined", "conditions": "in vivo"}, "Rattus norvegicus [8]": {"system": "Rattus norvegicus", "assay": "Distribution of radioactivity in the female rat liver tissues after intravenous administration after 30 min was determined", "conditions": "in vivo, 0.5 h"}, "Rattus norvegicus [9]": {"system": "Rattus norvegicus", "assay": "Distribution of radioactivity in the female rat liver tissues after intravenous administration after 3 days was determined", "conditions": "in vivo, 72 h"}, "Rattus norvegicus [10]": {"system": "Rattus norvegicus", "assay": "Distribution of radioactivity in the female rat liver tissues after intravenous administration after 3h was determined", "conditions": "in vivo"}, "Rattus norvegicus [11]": {"system": "Rattus norvegicus", "assay": "Distribution of radioactivity in the female rat liver tissues after intravenous administration after 60 min was determined", "conditions": "in vivo, 1 h"}, "Rattus norvegicus [12]": {"system": "Rattus norvegicus", "assay": "Distribution of radioactivity in the female rat lung tissues after intravenous administration after 1 day was determined", "conditions": "in vivo, 24 h"}, "Rattus norvegicus [13]": {"system": "Rattus norvegicus", "assay": "Distribution of radioactivity in the female rat lung tissues after intravenous administration after 30 min was determined", "conditions": "in vivo, 0.5 h"}, "Rattus norvegicus [14]": {"system": "Rattus norvegicus", "assay": "Distribution of radioactivity in the female rat lung tissues after intravenous administration after 3 days was determined", "conditions": "in vivo, 72 h"}, "Rattus norvegicus [15]": {"system": "Rattus norvegicus", "assay": "Distribution of radioactivity in the female rat lung tissues after intravenous administration after 3h was determined", "conditions": "in vivo"}, "Rattus norvegicus [16]": {"system": "Rattus norvegicus", "assay": "Distribution of radioactivity in the female rat lung tissues after intravenous administration after 60 min was determined", "conditions": "in vivo, 1 h"}, "Rattus norvegicus [17]": {"system": "Rattus norvegicus", "assay": "Distribution of radioactivity in the female rat kidney tissues after intravenous administration after 30 min was determined", "conditions": "in vivo, 0.5 h"}, "Rattus norvegicus [18]": {"system": "Rattus norvegicus", "assay": "Distribution of radioactivity in the female rat kidney tissues after intravenous administration after 3 days was determined", "conditions": "in vivo, 72 h"}, "Rattus norvegicus [19]": {"system": "Rattus norvegicus", "assay": "Distribution of radioactivity in the female rat kidney tissues after intravenous administration after 3h was determined", "conditions": "in vivo"}, "Rattus norvegicus [20]": {"system": "Rattus norvegicus", "assay": "Distribution of radioactivity in the female rat kidney tissues after intravenous administration after 5 min was determined", "conditions": "in vivo"}, "Rattus norvegicus [21]": {"system": "Rattus norvegicus", "assay": "Distribution of radioactivity in the female rat kidney tissues after intravenous administration after 60 min was determined", "conditions": "in vivo, 1 h"}, "Rattus norvegicus [22]": {"system": "Rattus norvegicus", "assay": "Distribution of radioactivity in the female rat liver tissues after intravenous administration after 1 day was determined", "conditions": "in vivo, 24 h"}, "Rattus norvegicus [23]": {"system": "Rattus norvegicus", "assay": "Distribution of radioactivity in the female rat blood tissues after intravenous administration after 60 min was determined", "conditions": "in vivo, 1 h"}, "Rattus norvegicus [24]": {"system": "Rattus norvegicus", "assay": "Distribution of radioactivity in the female rat heart tissues after intravenous administration after 1 day was determined", "conditions": "in vivo, 24 h"}, "Rattus norvegicus [25]": {"system": "Rattus norvegicus", "assay": "Distribution of radioactivity in the female rat heart tissues after intravenous administration after 30 min was determined", "conditions": "in vivo, 0.5 h"}, "Rattus norvegicus [26]": {"system": "Rattus norvegicus", "assay": "Distribution of radioactivity in the female rat heart tissues after intravenous administration after 3 days was determined", "conditions": "in vivo, 72 h"}, "Rattus norvegicus [27]": {"system": "Rattus norvegicus", "assay": "Distribution of radioactivity in the female rat heart tissues after intravenous administration after 3h was determined", "conditions": "in vivo"}, "Rattus norvegicus [28]": {"system": "Rattus norvegicus", "assay": "Distribution of radioactivity in the female rat heart tissues after intravenous administration after 5 min was determined", "conditions": "in vivo"}, "Rattus norvegicus [29]": {"system": "Rattus norvegicus", "assay": "Distribution of radioactivity in the female rat heart tissues after intravenous administration after 60 min was determined", "conditions": "in vivo, 1 h"}, "Rattus norvegicus [30]": {"system": "Rattus norvegicus", "assay": "Distribution of radioactivity in the female rat kidney tissues after intravenous administration after 1 day was determined", "conditions": "in vivo, 24 h"}, "Rattus norvegicus [31]": {"system": "Rattus norvegicus", "assay": "Distribution of radioactivity in the female rat lung tissues after intravenous administration after 5 min was determined", "conditions": "in vivo"}}, "note": "Values joined by “and” are separate entries in the source; they are usually repeats but may differ in a detail not shown here. Equal values may be shown once.", "data": [{"compound": "I/C=C/CCC[P+](c1ccccc1)(c1ccccc1)c1ccccc1.[I-]", "values": [{"measurement": "Activity", "setting": "Rattus norvegicus [1]", "result": 0.64, "unit": "%"}, {"measurement": "Activity", "setting": "Rattus norvegicus [2]", "result": 5.59, "unit": "%"}, {"measurement": "Activity", "setting": "Rattus norvegicus [3]", "result": "0.2% and 0.01%"}, {"measurement": "Activity", "setting": "Rattus norvegicus [4]", "result": "1.59% and 0.15%"}, {"measurement": "Activity", "setting": "Rattus norvegicus [5]", "result": "0.093% and 0.009%"}, {"measurement": "Activity", "setting": "Rattus norvegicus [6]", "result": "0.96% and 0.08%"}, {"measurement": "Activity", "setting": "Rattus norvegicus [7]", "result": "1.58% and 0.14%"}, {"measurement": "Activity", "setting": "Rattus norvegicus [8]", "result": 0.75, "unit": "%"}, {"measurement": "Activity", "setting": "Rattus norvegicus [9]", "result": "0.13% and 0.019%"}, {"measurement": "Activity", "setting": "Rattus norvegicus [10]", "result": "0.74% and 0.09%"}, {"measurement": "Activity", "setting": "Rattus norvegicus [11]", "result": "2.64% and 0.25%"}, {"measurement": "Activity", "setting": "Rattus norvegicus [12]", "result": "0.19% and 0.17%"}, {"measurement": "Activity", "setting": "Rattus norvegicus [13]", "result": "0.79% and 0.64%"}, {"measurement": "Activity", "setting": "Rattus norvegicus [14]", "result": "0.102% and 0.91%"}, {"measurement": "Activity", "setting": "Rattus norvegicus [15]", "result": "0.61% and 0.49%"}, {"measurement": "Activity", "setting": "Rattus norvegicus [16]", "result": "0.75% and 0.65%"}, {"measurement": "Activity", "setting": "Rattus norvegicus [17]", "result": "13.11% and 8.91%"}, {"measurement": "Activity", "setting": "Rattus norvegicus [18]", "result": "0.22% and 0.15%"}, {"measurement": "Activity", "setting": "Rattus norvegicus [19]", "result": "4.38% and 2.75%"}, {"measurement": "Activity", "setting": "Rattus norvegicus [20]", "result": "13.72% and 7.08%"}, {"measurement": "Activity", "setting": "Rattus norvegicus [21]", "result": "7.95% and 5.06%"}, {"measurement": "Activity", "setting": "Rattus norvegicus [22]", "result": "0.18% and 0.02%"}, {"measurement": "Activity", "setting": "Rattus norvegicus [23]", "result": "1.14% and 0.11%"}, {"measurement": "Activity", "setting": "Rattus norvegicus [24]", "result": "1.18% and 1.58%"}, {"measurement": "Activity", "setting": "Rattus norvegicus [25]", "result": "1.6% and 2.31%"}, {"measurement": "Activity", "setting": "Rattus norvegicus [26]", "result": 1, "unit": "%"}, {"measurement": "Activity", "setting": "Rattus norvegicus [27]", "result": "1.54% and 2.21%"}, {"measurement": "Activity", "setting": "Rattus norvegicus [28]", "result": "1.49% and 2.38%"}, {"measurement": "Activity", "setting": "Rattus norvegicus [29]", "result": "1.83% and 2.59%"}, {"measurement": "Activity", "setting": "Rattus norvegicus [30]", "result": "0.79% and 0.46%"}, {"measurement": "Activity", "setting": "Rattus norvegicus [31]", "result": "0.89% and 0.75%"}]}]}
